Literature values, collected in patent US20240249808A1, “Physiologically Based Toxicokinetic (PBTK) Modeling for Implant Toxicology” (Cyprus University of Technology, priority 2021, published 2024).

Details: parenteral (non-oral) exposure; prolonged or permanent patient exposure; adverse systemic effects except hypersensitivity; CDRH recommended

In the case of `[Ni]` [nickel], the “Tolerable Intake (TI) value” is listed as 0.5 µg/kg/day.
